# Patent US20010051646A1, “Method for the improvement of islet signaling in diabetes mellitus and for its prevention” (priority 2000, published 2001)
# Key:
# Male Zucker fa/fa rats [1] = test: Repeated once-daily oral dosing: morning blood glucose and plasma insulin; format: in vivo, rat
# Procedure: The parameters monitored were morning blood glucose and plasma insulin levels. In a day-night profile, glycemia and insulinaemia were monitored from day 16 to day 17. An OGTT was performed finally on day 21 to monitor blood glucose and plasma insulin kinetics to assess changes in glucose tolerance. Glibenclamide (DAB 1996; R011150/33372) was donated by Berlin-Chemie (Berlin, Germany). Male Zucker (fa/fa) rats of the body weight class of 300 g were purchased from Charles River (Sulzfeld, Germany).
# Housing Conditions: Animals were kept single-housed under conventional conditions with controlled temperature (22±2° C.) on a 12/12 hours light/dark cycle (light on at 06:00 a.m.). Standard pellets (ssniff®, Soest, Germany) and tap water acidified with HCl were allowed ad libitum.
# Catheterization of Carotid Artery: After one week of adaptation carotid catheters were implanted in the rats under general anesthesia (injection of 0.25 ml/kg i.p. Rompun® [2%], Bayer, Germany) and 0.5 ml/kg i.p. Velonarkon® (Arzneimittelwerk Dresden, Germany). The animals were allowed to recover for one week. The catheter was flushed with heparin-saline (100 IU/ml) three times per week.
# Thereafter, the non-diabetic Wistar rats were treated orally once daily with RP (5 mg/kg b.w.) or TP (21.61 mg/kg b.w.) and the diabetic Zucker rats were treated orally once daily with RP (1 mg/kg b.w.) or TP (21.61 mg/kg b.w.) for 21 days at 05.00 p.m. (before regular food intake in the dark phase). The controls were given 1% cellulose solution orally (5 ml/kg). Blood samples were taken every morning at 07.30 a.m. from tail veins for measurement of blood glucose and plasma insulin. The last blood samples of this part of the program were taken at 07.30 a. m. on the 15th day to measure blood glucose and plasma insulin. The oral drug therapy was continued for one week. Recording the day-night profile under the above therapy blood glucose (Δt=3 h) and plasma insulin (Δt=3-6 h) were monitored from day 16 (at 05.00 p.m. beginning) to day 17 (at 02.00 p.m. end).
# Blood glucose: Glucose levels were measured using the glucose oxidase procedure (Super G Glukosemeβgerät; Dr. Müller Gerätebau, Freital, Germany).
# Plasma insulin: Insulin concentrations were assayed by the antibody RIA method (LINCO Research, Inc. St. Charles, Mo., USA).
# Male Zucker fa/fa rats [2] = test: Day-night profile of glycemia and insulinemia, day 16 to day 17 of treatment; format: in vivo, rat
# Procedure: The parameters monitored were morning blood glucose and plasma insulin levels. […] An OGTT was performed finally on day 21 to monitor blood glucose and plasma insulin kinetics to assess changes in glucose tolerance. Glibenclamide (DAB 1996; R011150/33372) was donated by Berlin-Chemie (Berlin, Germany). Male Zucker (fa/fa) rats of the body weight class of 300 g were purchased from Charles River (Sulzfeld, Germany). […] Thereafter, the non-diabetic Wistar rats were treated orally once daily with RP (5 mg/kg b.w.) or TP (21.61 mg/kg b.w.) and the diabetic Zucker rats were treated orally once daily with RP (1 mg/kg b.w.) or TP (21.61 mg/kg b.w.) for 21 days at 05.00 p.m. (before regular food intake in the dark phase). The controls were given 1% cellulose solution orally (5 ml/kg). […] The oral drug therapy was continued for one week. […] Blood glucose: Glucose levels were measured using the glucose oxidase procedure (Super G Glukosemeβgerät; Dr. Müller Gerätebau, Freital, Germany). Plasma insulin: Insulin concentrations were assayed by the antibody RIA method (LINCO Research, Inc. St. Charles, Mo., USA).
# [3] = biological target: T1, PepT1 intestinal peptide transporter (Homo sapiens, UniProt P46059); test: Active transport through the intestinal mucosa
# T1 sequence (P46059 1-708): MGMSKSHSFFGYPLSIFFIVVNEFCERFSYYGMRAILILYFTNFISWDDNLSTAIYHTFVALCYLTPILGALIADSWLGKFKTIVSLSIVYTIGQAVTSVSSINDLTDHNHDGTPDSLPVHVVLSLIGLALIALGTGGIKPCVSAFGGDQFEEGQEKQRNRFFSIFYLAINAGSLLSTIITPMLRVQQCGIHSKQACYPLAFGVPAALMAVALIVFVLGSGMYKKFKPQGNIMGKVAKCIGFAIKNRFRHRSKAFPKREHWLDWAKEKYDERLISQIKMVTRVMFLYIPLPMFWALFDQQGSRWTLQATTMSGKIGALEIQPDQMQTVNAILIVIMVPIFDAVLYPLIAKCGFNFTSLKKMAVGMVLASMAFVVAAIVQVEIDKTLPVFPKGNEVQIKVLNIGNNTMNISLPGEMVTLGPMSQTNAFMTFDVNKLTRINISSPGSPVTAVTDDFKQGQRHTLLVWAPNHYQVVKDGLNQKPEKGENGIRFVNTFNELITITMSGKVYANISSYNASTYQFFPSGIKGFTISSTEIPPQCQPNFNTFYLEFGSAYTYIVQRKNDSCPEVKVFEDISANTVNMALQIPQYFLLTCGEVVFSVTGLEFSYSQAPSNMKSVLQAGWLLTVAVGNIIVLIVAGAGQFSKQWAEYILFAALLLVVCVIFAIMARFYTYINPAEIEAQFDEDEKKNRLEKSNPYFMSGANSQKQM
substance,measurement,setting,value
isoleucyl thiazolidine hemifumarate [P32/98],Hyperinsulinemia,Male Zucker fa/fa rats [1]; given once daily,reduced
same,Morning blood glucose,Male Zucker fa/fa rats [1]; given once daily,normalized
same,Time until morning blood glucose was reduced to a normal value,Male Zucker fa/fa rats [1]; once daily oral,≤ 5 days
same,Plasma insulin during 14 days in comparison to the control animals,"Male Zucker fa/fa rats [1]; rat, in vivo",slightly decrease insulin concentration
same,"Mean blood glucose, day-night profile","Male Zucker fa/fa rats [2]; 02.00 p.m. next day, RP 1 mg/kg, TP 21.61 mg/kg orally once daily",5.51 ± 0.19 mmol/L
same,"Plasma insulin, day-night profile",Male Zucker fa/fa rats [2]; 02.00 p.m. the next day,24.3 ± 3.7 ng/mL
same,"Plasma insulin, day-night profile",Male Zucker fa/fa rats [2]; 05.00 a.m. (maximum),57.1 ± 8.6 ng/mL
same,"Plasma insulin, day-night profile","Male Zucker fa/fa rats [2]; 05.00 p.m., RP 1 mg/kg, TP 21.61 mg/kg orally once daily",significantly lower than in the RP
same,"Mean blood glucose, day-night profile","Male Zucker fa/fa rats [2]; 08.00 a.m., TP 21.61 mg/kg orally once daily",5.64 ± 0.23 mmol/L
same,"Plasma insulin, day-night profile",Male Zucker fa/fa rats [2]; 08.00 p.m.,41.9 ± 8.5 ng/mL
same,"Mean blood glucose, day-night profile","Male Zucker fa/fa rats [2]; 11.00 a.m., RP 1 mg/kg, TP 21.61 mg/kg orally once daily",5.33 ± 0.14 mmol/L
same,"Mean blood glucose, day-night profile","Male Zucker fa/fa rats [2]; 11.00 p.m., RP 1 mg/kg, TP 21.61 mg/kg orally once daily",8.34 ± 0.47 mmol/L
same,Increase of glycemia from 05.00 p.m. to 11.00 p.m.,Male Zucker fa/fa rats [2]; day 16,about 3 mmol/l
same,"Individual blood glucose values, range","Male Zucker fa/fa rats [2]; day 16, 05.00 p.m.",4.34 to 6.07 mmol/L
same,"Mean blood glucose, day-night profile","Male Zucker fa/fa rats [2]; day 16, 05.00 p.m. before drug application, RP 1 mg/kg, TP 21.61 mg/kg orally once daily",5.25 ± 0.16 mmol/L
same,Blood glucose in the day-night profile,Male Zucker fa/fa rats [2]; given once daily,< 8.3 mmol/L
same,Economization (saving) of insulin compared to the control,"Male Zucker fa/fa rats [2]; obese Zucker rat, subchronic treatment",45%
same,Transport via the PepT1 intestinal peptide transporter,[3],actively transported
